Experimental data from US9795139B2, “Molecules having pesticidal utility, and intermediates, compositions, and processes, related thereto” (priority 2015, dated 2017).

What was measured:
Assay type in all cases: in vivo
[1] = system: Green Peach Aphid (Myzus persicae, MYZUPE); experiment: Bioassay on Green Peach Aphid (GPA), foliar spray on cabbage seedlings; conditions: 72 h, 200 ppm foliar spray on cabbage seedlings, three days, Abbott corrected % control, read-out: GPA % Control (or Mortality) rating
Experimental: Certain molecules disclosed in this document were tested against GPA using procedures described in the following example. In the reporting of the results, the “GPA & YFM Rating Table” was used (See Table Section).
Cabbage seedlings grown in 3-inch pots, with 2-3 small (3-5 cm) true leaves, were used as test substrate. The seedlings were infested with 20-50 GPA (wingless adult and nymph stages) one day prior to chemical application. Four pots with individual seedlings were used for each treatment. Test molecules (2 mg) were dissolved in 2 mL of acetone/methanol (1:1) solvent, forming stock solutions of 1000 ppm test molecule.
The stock solutions were diluted 5× with 0.025% Tween 20 in water to obtain the solution at 200 ppm test molecule. A hand-held aspirator-type sprayer was used for spraying a solution to both sides of […] leaves until runoff. Reference plants (solvent check) were sprayed with the diluent only containing 20% by volume of acetone/methanol (1:1) solvent. Treated plants were held in a holding room for three days at approximately 25° C. and ambient relative humidity (RH) prior to grading. Evaluation was conducted by counting the number of live aphids per plant under a microscope. Percent control was measured using Abbott's correction formula (W. S. Abbott, “A Method of Computing the Effectiveness of an Insecticide” J. Econ. Entomol. 18 (1925), pp. 265-267) as follows. Corrected % Control=100*(X−Y)/X where X=No. of live aphids on solvent check plants and Y=No. of live aphids on treated plants. The results are indicated in the table entitled “Table ABC: Biological Results” (See Table Section).

[2] = system: Yellow Fever Mosquito (Aedes aegypti, AEDSAE); conditions: about 1 day-old larvae, 96-well plate from 4000 ppm DMSO master, 3 days at room temperature
Method in brief: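 Each well was scored for mortality after 3 days at room temperature under a non-evaporative lid. Test molecules came from DMSO masters (4000 ppm stock) diluted with water/acetone 90:10 and dispensed into six replicate plates, which were then infested with roughly 1-day-old larvae in liver-powder water.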

[3] = system: Beet Armyworm (Spodoptera exigua, LAPHEG); experiment: Bioassay on Beet Armyworm (BAW), 128-well diet tray assay; conditions: 168 h, 50 μg/cm^2 on artificial diet, second instar larvae, 25° C., five to seven days, average of eight wells, read-out: BAW % Control (or Mortality) rating
Method in brief: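 Test molecule dissolved in acetone-water 90:10 is applied at 50 μg/cm^2 onto artificial diet and allowed to dry. Second instar larvae, one to five per well, are then added, and trays are vented and kept at 25° C. for five to seven days before mortality is scored.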

[4] = system: Cabbage Looper (Trichoplusia ni, TRIPNI); experiment: Bioassay on Cabbage Looper (CL), 128-well diet tray assay; conditions: 168 h, 50 μg/cm^2 on artificial diet, second instar larvae, 25° C., five to seven days, average of eight wells, read-out: CL % Control (or Mortality) rating
Method in brief: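 Test molecule is dissolved in 90:10 acetone-water and applied at 50 μg/cm^2 onto artificial diet, then dried. One to five second-instar larvae go into each of eight wells. Trays, sealed but vented, stay at 25° C., 14:10 light-dark, five to seven days, after which mortality is averaged.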

SMILES	mortality at 200 ppm [1] [%]	YFM % Control (or Mortality) rating [2]	mortality at 50 µg/cm2 [3] [%]	mortality at 50 µg/cm2 [4] [%]
N#CC1(NC(=O)c2cc(NC(=O)[C@H]3[C@H](c4cc(Cl)c(Cl)c(Cl)c4)C3(Cl)Cl)ccc2Cl)CC1 (relative stereo) [Molecule F10, trans-2-Chloro-N-(1-cyanocyclopropyl)-5-(2,2-dichloro-3-(3,4,5-trichlorophenyl)cyclopropanecarboxamido)benzamide]	80 to 100	A (80-100)	50 to 100	50 to 100
O=C(NC1CSC1)c1cc(NC(=O)[C@H]2[C@H](c3ccc(Cl)c(Cl)c3)C2(Cl)Cl)ccc1Cl (relative stereo) [Molecule F16, trans-2-Chloro-5-(2,2-dichloro-3-(3,4-dichlorophenyl)cyclopropanecarboxamido)-N-(thietan-3-yl)benzamide]	80 to 100	A (80-100)	50 to 100	50 to 100
O=C(NC1CSC1)c1cc(NC(=O)[C@H]2[C@H](c3cc(Cl)cc(Cl)c3)C2(Cl)Cl)ccc1Cl (relative stereo) [Molecule F15, trans-2-Chloro-5-(2,2-dichloro-3-(3,5-dichlorophenyl)cyclopropanecarboxamido)-N-(thietan-3-yl)benzamide]	80 to 100	A (80-100)	50 to 100	50 to 100
N#Cc1cc(Cl)cc([C@H]2[C@H](C(=O)Nc3ccc(Cl)c(C(=O)NC4(C#N)CC4)c3)C2(Cl)Cl)c1 (relative stereo) [Molecule F78, trans-2-Chloro-N-(1-cyanocyclopropyl)-5-(2,2-dichloro-3-(3-chloro-5-cyanophenyl)cyclopropane-1-carboxamido)benzamide]	0 to 80	D (No activity noticed in this bioassay)	50 to 100	50 to 100
O=C(NC1CCSC1)c1cc(NC(=O)[C@H]2[C@H](c3cc(Cl)c(Cl)c(Cl)c3)C2(Cl)Cl)ccc1Cl (relative stereo) [Molecule F8, trans-2-chloro-5-(2,2-dichloro-3-(3,4,5-trichlorophenyl)cyclopropanecarboxamido)-N-(tetrahydrothiophen-3-yl)benzamide]	0	A (80-100)	50 to 100	50 to 100
Cc1cc([C@H]2[C@H](C(=O)Nc3ccc(Cl)c(C(=O)NC4CC(F)(F)C4)c3)C2(Cl)Cl)cc(Cl)c1Cl (relative stereo) [Molecule F50, trans-2-Chloro-5-(2,2-dichloro-3-(3,4-dichloro-5-methylphenyl)cyclopropanecarboxamido)-N-(3,3-difluorocyclobutyl)benzamide]	0 to 80	D (No activity noticed in this bioassay)	50 to 100	50 to 100
O=C(NC1CC(F)(F)C1)c1cc(NC(=O)[C@H]2[C@H](c3cc(Cl)cc(Cl)c3)C2(Cl)Cl)ccc1Cl (relative stereo) [Molecule F5, trans-2-Chloro-5-(2,2-dichloro-3-(3,5-dichlorophenyl)cyclopropanecarboxamido)-N-(3,3-difluorocyclobutyl)benzamide]	80 to 100	A (80-100)	50 to 100	50 to 100
O=C(NC1CC(F)(F)C1)c1cc(NC(=O)[C@H]2[C@H](c3cc(Cl)cc(Cl)c3)C2(Cl)Br)ccc1Cl (relative stereo) [Molecule F71, trans-5-(2-Bromo-2-chloro-3-(3,5-dichlorophenyl)cyclopropane-1-carboxamido)-2-chloro-N-(3,3-difluorocyclobutyl)benzamide]	80 to 100	B (More than 0-Less than 80)	50 to 100	50 to 100
N#CC1(NC(=O)c2cc(NC(=O)[C@H]3[C@H](c4cc(Cl)cc(Cl)c4)C3(Cl)Cl)ccc2Cl)CC1 (relative stereo) [Molecule F4, trans-2-Chloro-N-(1-cyanocyclopropyl)-5-(2,2-dichloro-3-(3,5-dichlorophenyl)cyclopropanecarboxamido)benzamide]	80 to 100	A (80-100)	50 to 100	50 to 100
O=C(NC1CC(F)(F)C1)c1cc(NC(=O)[C@H]2[C@H](c3cc(Cl)cc(Br)c3)C2(Cl)Cl)ccc1Cl (relative stereo) [PF8, trans-5-(3-(3-Bromo-5-chlorophenyl)-2,2-dichlorocyclopropane-1-carboxamido)-2-chloro-N-(3,3-difluorocyclobutyl)benzamide]	80 to 100	D (No activity noticed in this bioassay)	50 to 100	50 to 100
N#CC1(NC(=O)c2cc(NC(=O)C3C(c4ccc(Cl)c(Cl)c4)C3(Cl)Cl)ccc2Cl)CCC1 (stereo not drawn) [Molecule F14, trans-2-Chloro-N-(l-cyanocyclobutyl)-5-(2,2-dichloro-3-(3,4-dichlorophenyl)cyclopropanecarboxamido)benzamide]	0 to 80	A (80-100)	50 to 100	50 to 100
O=C(NC1CC(F)(F)C1)c1cc(NC(=O)[C@H]2[C@H](c3ccc(F)c(Cl)c3)C2(Cl)Cl)ccc1Cl (relative stereo) [PF7, trans-2-Chloro-5-(2,2-dichloro-3-(3-chloro-4-fluorophenyl)cyclopropane-1-carboxamido)-N-(3,3-difluorocyclobutyl)benzamide]	80 to 100	D (No activity noticed in this bioassay)	50 to 100	50 to 100
O=C(NC1CC(F)(F)C1)c1cc(NC(=O)[C@H]2[C@H](c3ccc(OC(F)(F)F)c(Cl)c3)C2(Cl)Cl)ccc1Cl (relative stereo) [Molecule F21, trans-2-Chloro-5-(2,2-dichloro-3-(3-chloro-4-(trifluoromethoxy)phenyl)cyclopropanecarboxamido)-N-(3,3-difluorocyclobutyl)benzamide]	80 to 100	A (80-100)	50 to 100	50 to 100
O=C(NC1CC(F)(F)C1)c1cc(NC(=O)[C@H]2[C@H](c3cccc(C(F)(F)F)c3)C2(Cl)Cl)ccc1Cl (relative stereo) [Molecule F19, trans-2-Chloro-5-(2,2-dichloro-3-(3-(trifluoromethyl)phenyl)cyclopropanecarboxamido)-N-(3,3-difluorocyclobutyl)benzamide]	80 to 100	B (More than 0-Less than 80)	50 to 100	50 to 100
N#CC1(NC(=O)c2cc(NC(=O)[C@H]3[C@H](c4ccc(Cl)c(Cl)c4)C3(Cl)Cl)ccc2Cl)CC1 (relative stereo) [Molecule F11, trans-2-Chloro-N-(1-cyanocyclopropyl)-5-(2,2-dichloro-3-(3,4-dichlorophenyl)cyclopropanecarboxamido)benzamide]	80 to 100	A (80-100)	50 to 100	50 to 100
